# Laboratory results from US20120071513A1, “Compositions and Their Use as Anti-Tumor Agents” (COMPASS PHARMACEUTICALS LLC, priority 2004, published 2012).
# Experiments:
# [1] = test system: A2780 human ovarian adenocarcinoma xenografts; test: in vivo anti-tumor activity, A2780 xenografts; design: species or system mice; settings: 15 mg/kg, Day 19, positive control
# Protocol: Body weights and tumor measurements were recorded three times weekly. Tumor burden (mg) was estimated from caliper measurements by the formula for the volume of a prolate ellipsoid assuming unit density as: Tumor burden (mg)=(L×W2)/2, where L and W are the respective orthogonal tumor length and width measurements (mm). The primary endpoints used to evaluate efficacy were study day 26 T/C values, complete and partial tumor responses, tumor growth delay, and the number of tumor-free survivors at the end of the study. T/C values were calculated by dividing the treated median tumor mass by the median control tumor mass and multiplying by 100. The USA National Cancer Institute (NCI) considers a compound which produces a % T/C value of 42 of less is active. Complete response (CR) is defined as a decrease in tumor mass to an undetectable size (<50 mg), and a partial response (PR) is defined as a ≧50% decrease in tumor mass from that at first treatment. […] Tumor Growth Delay (T-C) was also used to quantify efficacy. Tumor growth delay for this experiment was expressed as a T-C value, where T and C are the median times in days required for the treatment and control group tumors, respectively, to grow to a selected evaluation size, 750 mg. […]
# Test animals were implanted subcutaneously on day 0 with 30 to 60 mg A2780 tumor fragments. […] Tumor mass on day 19 was analyzed by a single factor ANOVA. […]
# [2] = test system: A375 human melanoma xenografts; test: in vivo anti-tumor activity, A375 xenografts; design: species or system mice; settings: 30 mg/kg
# Protocol: The in vivo anti-tumor activity of CP5017808 was evaluated against A375 human melanoma xenografts and ovarian carcinoma.
# CP5017808 was dissolved with heat and sonication in a 1:1 mixture of absolute ethanol and CREMAPHOR™ equivalent to 20% of the final desired volume, and then brought to a final volume with 40% hydroxypropyl-β-cyclodextin in water. CP5017808 produced a fine suspension with a pH of 6.2.
# Female NCr nu/nu mice (Charles River Laboratory) were used for the study. They were 5-6 weeks old on Day 1 of the experiment. The animals were fed Rodent Diet 5010 (LabDiet™) and water ad libitum. The mice were housed in Thoren™ microisolator caging with Bed-O'Cobs™ bedding. […]
# Body weights and tumor measurements were recorded three times weekly. […] T/C values were calculated by dividing the treated median tumor mass by the median control tumor mass and multiplying by 100. […] Tumor Growth Delay (T-C) was also used to quantify efficacy. Tumor growth delay for this experiment was expressed as a T-C value, where T and C are the median times in days required for the treatment and control group tumors, respectively, to grow to a selected evaluation size, 750 mg.
# The time for individual tumors to reach evaluation size, time to fold growth, and tumor volume doubling times were analyzed by a single factor ANOVA. […]
SMILES,% T/C value [1],tumor growth delay ([2]; evaluation size 750 mg),"% T/C value ([2]; study day 26, positive control)"
CC(=O)O[C@H]1C(=O)[C@@]2(C)[C@H]([C@H](OC(=O)c3ccccc3)[C@]3(O)C[C@H](OC(=O)[C@H](O)[C@@H](NC(=O)c4ccccc4)c4ccccc4)C(C)=C1C3(C)C)[C@]1(OC(C)=O)CO[C@@H]1C[C@@H]2O [Taxol®],15%,–,–
CC(=O)O[C@@]12CO[C@@H]1C[C@H](O)[C@@]1(C)C(=O)[C@H](O)C3=C(C)[C@@H](OC(=O)[C@H](O)[C@@H](NC(=O)OC(C)(C)C)c4ccccc4)C[C@@](O)([C@@H](OC(=O)c4ccccc4)[C@H]21)C3(C)C [docetaxel],–,10 days,32%
